Where two headings read alike, the source gives them in different places.

The text below walks through data of patent US6326390A (King Pharmaceuticals Reseach and Development, Inc., priority 1999, dated 2001).

For assay [1], the target named is T1, rat brain A1 adenosine receptor (Rattus norvegicus, UniProt P25099).
T1 construct: membranes of rat brain; from tissue; host or cells: whole brain membranes of male Wistar rats
T1 sequence (P25099 1-326): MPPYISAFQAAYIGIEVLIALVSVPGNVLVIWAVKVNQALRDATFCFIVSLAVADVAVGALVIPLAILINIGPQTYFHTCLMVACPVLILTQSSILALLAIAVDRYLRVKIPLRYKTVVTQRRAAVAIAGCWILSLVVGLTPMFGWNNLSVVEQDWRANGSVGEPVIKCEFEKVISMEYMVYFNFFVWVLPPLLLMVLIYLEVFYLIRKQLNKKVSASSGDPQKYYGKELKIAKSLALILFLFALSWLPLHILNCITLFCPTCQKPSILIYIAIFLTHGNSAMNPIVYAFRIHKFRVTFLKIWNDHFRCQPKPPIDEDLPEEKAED
The assay is described as follows: Rat A1 adenosine receptor binding assay, displacement of [^3 H]CHA. The conditions noted are these: rat brain membranes, [^3 H]CHA 1 nM; read-out: rA1 (Ki).
Description: Male Wistar rats (200-250 g) were decapitated and the whole brain and striatum dissected on ice. […] After 30 min incubation at 37° C., the membranes were centrifuged and pellets were stored at -80° C. Prior to freezing, an aliquot of homogenate was removed for protein assay with bovine albumin as reference standard. Binding assays were performed on rat brain and striatum membranes respectively, in the presence of 10 mM MgCl2 at 25° C. All buffer solutions were adjusted to maintain a constant pH of 7.4.
Separation of bound from free radio ligand was performed by rapid filtration through Whatman GF/B filters which were washed three times with ice-cold buffer. Filter bound radioactivity was measured by scintillation spectrometry after addition of 5 mL of Aquassure. […] Incubation time ranged from 150 min. at 0° C. to 75 min at 30° C. according to the results of previous time-course experiments. Ki values were calculated from the Cheng-Prusoff equation. All binding data were analyzed using the nonlinear regression curve-fitting computer program LIGAND.

The target in assay [2] is T2, adenosine A3 receptors in HL60 membranes (Homo sapiens, UniProt P0DMS8).
T2 construct: characterization of A3 receptors in some human tumor cell lines; endogenous in cells; host or cells: HL60 (human promyelocytic leukaemia), membranes
T2 sequence (P0DMS8 1-318): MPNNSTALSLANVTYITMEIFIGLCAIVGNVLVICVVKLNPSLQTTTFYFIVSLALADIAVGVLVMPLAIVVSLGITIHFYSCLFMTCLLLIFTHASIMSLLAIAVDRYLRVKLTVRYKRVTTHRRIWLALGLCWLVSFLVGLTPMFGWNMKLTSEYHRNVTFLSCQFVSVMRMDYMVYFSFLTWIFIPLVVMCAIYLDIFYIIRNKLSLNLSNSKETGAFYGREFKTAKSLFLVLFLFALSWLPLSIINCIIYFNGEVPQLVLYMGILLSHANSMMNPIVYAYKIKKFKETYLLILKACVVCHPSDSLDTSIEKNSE
The assay can be described thus: Saturation of Compound 1 binding to A3 receptors in HL60 membranes.

Assay [3] deals with T3, adenosine A3 receptors in Jurkat cell membranes (Homo sapiens, UniProt P0DMS8).
T3 construct: characterization of A3 receptors in some human tumor cell lines; endogenous in cells; host or cells: Jurkat (human T-cell leukaemia), membranes
T3 sequence (P0DMS8 1-318): T2 sequence (P0DMS8 1-318)
The assay is described as follows: Saturation of Compound 1 binding to A3 receptors in Jurkat cell membranes.

The subject of the next assay is cerebral ischemia. The conditions noted are these: chronic administration; cited from earlier work.
For another assay, the system named is SKN-Be2C cell line. The assay is described as follows: [^125 I]-ABMECA binding on cell membranes of tumor cell lines: SKN-Be2C. As to the method: (§1) A series of binding experiments were performed on various tumor cell lines, using […] [^125 I]-ABMECA, with unspecific binding determined in the presence of 50 μM R-PIA or 200 μM NECA, on cell membranes of the cell lines. Specific binding was determined by substracting unspecific binding from total binding. The cell lines were the HL 60, NB4, SKN-MC, SKN-Be2C, SKN-SH and JURKAT cell lines.

The next assay relates to JURKAT cell line. The assay is described as follows: [^125 I]-ABMECA binding on cell membranes of tumor cell lines: JURKAT. Details: species or system human. How it is done:
as §1

The subject of the next assay is HL 60 cell line. The assay is described as follows: [^125 I]-ABMECA binding on cell membranes of tumor cell lines: HL 60. Details: species or system human. How it is done: as §1
The target in assay [4] is T4, human A3 receptors expressed in HEK 293 cells (Homo sapiens, UniProt P0DMS8).
T4 sequence (P0DMS8 1-318): T2 sequence (P0DMS8 1-318)
Particulars: saturation, n=3.
Description: Incubation time was 60 min at 37° C., according to the results of previous time-course experiments. Bound and free radioactivity were separated by filtering the assay mixture through Whatman GF/B glass-fiber filters using a Brandel cell harvester. Non-specific binding was defined as binding in the presence of 50 μM R-PIA and was about 30% of total binding. The incubation mixture was diluted with 3 ml of ice-cold incubation buffer, rapidly vacuum filtered and the filter was washed three times with 3 ml of incubation buffer. The filter bound radioactivity was counted in a Beckman gamma 5500B γ counter. The protein concentration can be determined according to a Bio-Rad method (3) with bovine albumin as reference standard.
Non-specific binding was defined in the presence of 50 μM R-PIA and was about 30% of total binding. Incubation time was 60 min at 37° C., according to the results of previous time-course experiments. Bound and free radioactivity was separated by filtering the assay mixture through Whatman GF/B glass-fiber filters using a Brandel cell harvester.

The subject of the next assay is NB4 cell line. The assay can be described thus: [^125 I]-ABMECA binding on cell membranes of tumor cell lines: NB4. As to the method:
as §1

The next assay relates to SKN-SH cell line. The assay is described as follows: [^125 I]-ABMECA binding on cell membranes of tumor cell lines: SKN-SH. As to the method: as §1
The subject of the next assay is SKN-MC cell line. The assay is described as follows: [^125 I]-ABMECA binding on cell membranes of tumor cell lines: SKN-MC. How it is done: as §1
The target in assay [5] is T5, human A3 receptors expressed in the JURKAT cell line (Homo sapiens, UniProt P0DMS8).
T5 sequence (P0DMS8 1-318): T2 sequence (P0DMS8 1-318)
Particulars: Jurkat cell membranes, [^125 I]AB-MECA.
Description: Jurkat cell lines appeared to provide the best results of the cell lines tested. A saturation experiment was performed using Jurkat cell lines at 37° C., with a one hour incubation period, using [^125 I]-ABMECA (0.125-1.5 nM), with nonspecific binding measured using RPIA (50 μM).

For `CCCn1cc2c(nc(NC(=O)Nc3ccc(OC)cc3)n3nc(-c4ccco4)nc23)n1` [Compound 1, 5-[[(4-Methoxyphenyl)amino]carbonyl]amino-8-propyl-2-(2-furyl)-pyrazolo[4,3-e] 1,2,4-triazolo[1,5-c]pyrimidine], the inhibition constant (Ki) in assay [1] was over 10 µM. The “density of adenosine A3 receptors detected” value in assay [2] (HL60 cells, tritiated analogue of Compound 1) is listed as about 650 fmol/mg protein; in assay [3] (Jurkat cells, tritiated analogue of Compound 1) it was “approximately 1300 fmol/mg protein”. Besides, the Bmax value in assay [2] (HL60 membranes, 0.1 to 10 nM, n=3) was found to be 626±42 fmol/mg protein; in assay [3] (Jurkat membranes, 0.2 to 15 nM, n=3) it was 1.30±0.03 pmol/mg protein.

For the compound `CNC(=O)[C@H]1O[C@@H](n2cnc3c(NCc4cccc(I)c4)ncnc32)[C@H](O)[C@@H]1O` [IB-MECA], the “protection against cerebral ischemia” value in the assay with cerebral ischemia was “protects against cerebral ischemia”.

As to `CNC(=O)[C@H]1O[C@@H](n2cnc3c(NCc4ccc(N)c([125I])c4)ncnc32)[C@H](O)[C@@H]1O` [[^125 I]AB-MECA, N^6-(4-amino-3-iodobenzyl)-5'-(N-methylcarbamoyl)adenosine], the “Percent Specific Binding” value with SKN-Be2C cell line (SKN-Be2C) is 24%; in the assay on JURKAT cell line (JURKAT), 38%; in the assay with HL 60 cell line (HL 60), 20%; in the assay with NB4 cell line (NB4), 19%; in the assay with SKN-SH cell line (SKN-SH), 3%; with SKN-MC cell line (SKN-MC), 17%. The “Total Binding” value with SKN-Be2C cell line (SKN-Be2C cell membranes) was determined as 6000; in the assay with JURKAT cell line (JURKAT cell membranes), 7599; in the assay with HL 60 cell line (HL 60 cell membranes) it was 3484; with NB4 cell line (NB4 cell membranes), 3377; in the assay on SKN-SH cell line (SKN-SH cell membranes) it was 2671; in the assay on SKN-MC cell line (SKN-MC cell membranes), 7528. For the same compound, the “Unspecific Binding” value amounted to 4585 with SKN-Be2C cell line (SKN-Be2C, 50 μM R-PIA or 200 μM NECA); 4753 in the assay on JURKAT cell line (JURKAT, 50 μM R-PIA or 200 μM NECA); 2791 in the assay on HL 60 cell line (HL 60, 50 μM R-PIA or 200 μM NECA); 2740 in the assay with NB4 cell line (NB4, 50 μM R-PIA or 200 μM NECA); 2580 with SKN-SH cell line (SKN-SH, 50 μM R-PIA or 200 μM NECA); 6220 in the assay on SKN-MC cell line (SKN-MC, 50 μM R-PIA or 200 μM NECA). In addition, the “Specific Binding” value in the assay on SKN-Be2C cell line (SKN-Be2C, total minus unspecific) worked out at 1415 cpm; with JURKAT cell line (JURKAT, total minus unspecific), 2846 cpm; with HL 60 cell line (HL 60, total minus unspecific) it was 693 cpm; in the assay with NB4 cell line (NB4, total minus unspecific) it was 637 cpm; in the assay with SKN-SH cell line (SKN-SH, total minus unspecific) it was 91 cpm; with SKN-MC cell line (SKN-MC, total minus unspecific) it was 1308 cpm. Moreover, in assay [4], the Bmax value is reported as 62±1 fmol/mg protein. Further, the “Bmax (density of A3 receptor)” value in assay [5] is recorded as “approximately 300 fmol/mg protein”; in assay [5] (listed as [^125 I]-ABMECA), 290 fmol/mg protein.
